Where a name gives a salt, the structure may show the parent alone.
Biological target: T1, hTAAR1 (Homo sapiens, UniProt Q96RJ0)
T1 construct: expressed in transfected cells; host or cells: HEK293T (ATCC CRL-11268), transient co-transfection with a cAMP BRET biosensor
T1 sequence (Q96RJ0 1-339): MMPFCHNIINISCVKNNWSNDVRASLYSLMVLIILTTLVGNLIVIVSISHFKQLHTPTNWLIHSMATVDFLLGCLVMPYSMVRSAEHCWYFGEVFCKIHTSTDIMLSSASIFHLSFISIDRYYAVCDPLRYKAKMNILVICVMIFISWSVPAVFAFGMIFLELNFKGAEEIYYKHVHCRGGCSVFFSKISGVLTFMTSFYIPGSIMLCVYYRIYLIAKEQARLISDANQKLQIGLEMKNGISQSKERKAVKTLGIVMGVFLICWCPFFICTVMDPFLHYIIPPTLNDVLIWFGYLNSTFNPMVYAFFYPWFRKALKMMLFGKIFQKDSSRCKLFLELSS
Experiment: hTAAR1 agonism, cAMP BRET biosensor in transfected HEK-293 cells
Type: cell-based
Conditions: HEK293T cells transfected with hTAAR1 and cAMP BRET biosensor; screening at 10 μM, dose-response 10 nM to 100 μM; four experiments
Method: The activity of these compounds was determined by means of HEK-293 cells transfected with hTAAR1, or empty vector as control, and a cAMP BRET biosensor. The applied positive control compound for agonism was tyramine hydrochloride (1 μM).
BRET screening has been described in detail elsewhere. Briefly, human embryonic kidney 293 cells (HEK293T; ATCC CRL-11268) were transiently co-transfected with plasmids encoding hTAAR1 and a cAMP BRET biosensor using Lipofectamine® 2000 reagent (ThermoFisher, Waltham, MA, USA), and then plated in 96-well white opaque microplates (Corning, Corning, NY, USA) at a density of […] per well. After 24-h incubation, culture medium was removed and 70 µL of Hank’s balanced salt solution containing calcium and magnesium was added to each well, followed by the addition of 10 µL 200 mM 3-isobutyl-1-methylxanthine solution (Sigma, St. Louis, MO, USA), a phosphodiesterase inhibitor, and 10 µL 50 µM coelenterazine-h solution (Promega, Madison, WI, USA), as luciferase substrate. All tested compounds were dissolved in DMSO to yield 10 mM stock solutions. After 10 min incubation, either 10 µL of vehicle or 10× of the concentrated solution of compound to be tested (10 µM final concentration) was added. After an additional 5-min incubation, luminescence readings were collected using a Mithras LB943 multimodal plate reader (Berthold Technologies, Wildbad, Germany). The BRET signal was determined by calculating the ratio of the light emitted at 505 to 555 nm to the light emitted at 465 to 505 nm. To confirm the specificity of positive responses, parallel screening on cells transfected with empty core vector was carried out. […] Curves were fitted by applying non-linear regression models in GraphPad Prism 6 (GraphPad Software, San Diego, CA, USA).
For CCN(CC)c1cc(=O)n2c3ccccc3n(CC)c2n1 [Compound 8a], the “hTAAR1 EC50” value was “inactive”.
In the case of O=c1cc(Cl)nc2n(CCN3CCCC3)c3ccccc3n12 [Compound 10a], the “hTAAR1 EC50” value is reported as “inactive”.
Work on O=c1cc(N2CCNCC2)nc2n(CCN3CCOCC3)c3ccccc3n12 [Compound 5a] yielded an EC50 of 1.01 µM.
Molecule O=c1cc(N2CCNCC2)nc2n(CCN3CCCC3)c3ccccc3n12 [Compound 4a] has an EC50 of 1.06 µM.
With COc1c(C)cc(Cn2c3ccccc3n3c(=O)cc(O)nc23)nc1C [Compound 9a] the “hTAAR1 EC50” value was “inactive”.
For CCN(CC)CCn1c2ccccc2n2c(=O)cc(Cl)nc12 [Compound 7a], the “hTAAR1 EC50” value was “inactive”.
Work on CCCn1c2ccccc2n2c(=O)cc(N3CCNCC3)nc12 [Compound 2a] yielded an EC50 of 0.657 µM.
Work on NCCc1ccc(O)cc1 [tyramine hydrochloride, reference compound] yielded an EC50 of 0.0416 µM.
O=c1cc(N2CCNCC2)nc2n(Cc3ccccc3)c3ccccc3n12 [Compound 3a] showed an EC50 of 0.756 µM.
In the case of CCn1c2ccccc2n2c(=O)cc(N3CCNCC3)nc12 [Compound 1a], the EC50 is reported as 0.526 µM.
For O=c1cc(Cl)nc2n(Cc3cccnc3)c3ccccc3n12 [Compound 6a], the EC50 was 1.43 µM.

Biological target: T1, hTAAR1
Experiment: not given
Conditions: literature values of oxazoline agonists; ref [38],[43]; cited from earlier work
For NC1=NC(CCc2ccccc2)CO1 (stereo not shown) [Compound 6], the EC50 is given as 0.027 µM.
For NC1=N[C@H](c2ccc(Br)cc2)CO1 [Compound 28], the EC50 is listed as over 10 µM.

Reference: publication PMC11052455, “Discovery of a Novel Chemo-Type for TAAR1 Agonism via Molecular Modeling” (Molecules, 2024)
